Source: patent publication US6884423B1, “Antimicrobial histone H1 compositions, kits, and methods of use thereof” (Symbiotec GmbH, priority 1998, dated 2005)

Columns and labels:
E. coli strain AB1157 [1] = assay: Inhibition of the antibiotic activity of histone H1 by heparin; type: cell-based, Escherichia coli; details: 4 micrograms per milliliter histone H1, 37° C., ten minutes
Description: In selected assays, the incubation medium also contained a selected concentration of heparin, in the range from 0 to about 250 units per milliliter.

E. coli strain AB1157 [2] = assay: Fractional survival of histone H1-contacted cells by colony counting
Description: Purified bovine histone H1 was prepared as described herein in Example 1. Cells of E. coli strain AB1157 (obtained from ATCC) were grown in NYET medium (4 grams per liter nutrient broth, 7.5 grams per liter yeast extract, and 4 grams per lither tryptone) at 37° C. E. coli cells in approximately the exponential growth phase were incubated in Sorensen buffer (41 mM Na2HPO4, 25.7 mM KH2PO4) for twenty minutes in the presence of a selected concentration of histone H1. The fractional survival of histone H1-contacted cells, relative to cells which were not contacted with histone H1 was determined by counting colonies using an automated colony counter (3M model 620). About 200 microliters of an H1-containing bacterial suspension was plated into Petri dishes by adding 10 milliliters of 57° C. medium containing 1.5% (w/w) Bacto agar. […]
Purified bovine histone H1 was prepared as described herein in Example 1. Cells of E. coli strain AB1157 were incubated in Sorensen buffer at a selected temperature for a selected period in the presence of a 1.9 micromolar histone H1 The fractional survival of histone H1-contacted cells, relative to cells not contacted with histone H1 was determined as described herein in Example 4. […] Normal human body temperature is about 37° C. […]
Purified bovine histone H1 was prepared as described herein in Example 1. Cells of E. coli strain AB1157 were incubated in Sorensen buffer at a selected temperature for a selected period in the presence of a selected concentration histone H1. In selected assays, the medium also contained between 0 and about 10% (v/v) human or bovine serum. The fractional survival of histone H1-contacted cells, relative to cells not contacted with histone H1 was determined as described herein in Example 4. […]

Bacillus cereus = assay: Percent reduction in colony formation (spectrum of antibiotic activity); type: cell-based; details: 37° C.
Description: (§1) Histone H1 suspended in Sorensen buffer was added to aliquots of individual bacterial cultures to achieve a final concentration of either 1.9 micromolar or 3.8 micromolar. No histone H1 was added to individual control culture aliquots. The aliquots were thereafter incubated at 37° C. for either ten minutes or forty-five minutes, and the aliquots were plated on appropriate solid or semisolid media.

Bacillus megaterium = assay: as above; type: cell-based; details: 37° C.
Description: as §1

Bacillus subtilis = assay: as above; type: cell-based; details: Incubation time 10 minutes; [Histone H1] 1.9 micromolar; 37° C.
Description: as §1

Enterococcus faecalis = assay: as above; type: cell-based; details: 37° C.
Description: as §1

[3] = tested on: Escherichia coli strain AB1157; assay: as above; type: cell-based; details: 37° C.
Description: as §1

Proteus mirabilis = assay: as above; type: cell-based; details: Incubation time 10 minutes; [Histone H1] 1.9 micromolar; 37° C.
Description: as §1

Pseudomonas aeruginosa = assay: as above; type: cell-based; details: 37° C.
Description: as §1

Salmonella enteritidis = assay: as above; type: cell-based; details: Incubation time 10 minutes; [Histone H1] 1.9 micromolar; 37° C.
Description: as §1

Serratia marcescens = assay: as above; type: cell-based; details: Incubation time 10 minutes; [Histone H1] 1.9 micromolar; 37° C.
Description: as §1

Staphylococcus aureus = assay: as above; type: cell-based; details: 37° C.
Description: as §1

[4] = tested on: penicillin-resistant E. coli strain derived from strain AB1157; assay: Bacteriocidal effect upon penicillin-resistant bacteria (fractional survival); type: cell-based, Escherichia coli; details: histone H1 in Sorensen buffer, 37° C.
Excerpt: Cells of E. coli strain AB1157 were made penicillin-resistant by culturing them in penicillin-containing growth media over a period of several days. The resulting population was completely resistant to penicillin.

[5] = tested on: various strains of E. coli isolated from urinary tract infections; assay: Exposure time dependence of antibiotic activity, urinary tract infection isolates; type: cell-based, Escherichia coli; details: after thirty minutes; all strains
Description: Histone H1 suspended in Sorensen buffer was added to aliquots of individual bacterial cultures to achieve a final concentration of either 1.9 micromolar or 3.8 micromolar. No histone H1 was added to individual control culture aliquots. […]

E. coli strain AB1157 [6] = assay: Membrane damage by Sytox Green dye and flow cytometer; type: cell-based, Escherichia coli; details: 0.4, 0.95 and 1.9 μM histone H1, 37° C., various time intervals
Description: Membrane damage of E. coli cells was determined at various time intervals, using the dye Sytox Green and a flow cytometer as described (Roth et al., 1997, Appl. Env. Microbiol. 63:2421-2431).

E. coli strain AB1157 [7] = assay: Binding of histone H1 to bacteria (activity of medium pre-contacted with cells); type: cell-based, Escherichia coli; details: forty-five minutes pre-incubation with E. coli cells, decanted medium re-inoculated
Description: An aliquot of cells of E. coli strain AB1157 was incubated with histone H1 as described herein in Example 4. After forty-five minutes of incubation, cells were removed by centrifugation and decanting.

bacterial cells = assay: Toxic concentration for bacterial cells; type: cell-based
E. coli strain AB1157 [8] = assay: Thermal stability of histone H1 (antibiotic activity after storage); type: cell-based, Escherichia coli; details: for fractional survival of cells: 40 micrograms per milliliter, 37° C., ten minutes
Description: In a first experiment, purified histone H1 was stored at −80° C. for more than thirty-six months.
In a second experiment, aliquots of purified histone H1 were separately stored at −80° C., at 4° C., and at 37° C. for twenty hours. […] The fractional survival of cells incubated with histone H1 stored at −80° C. was about 0.1%. The fractional survival of cells incubated with histone H1 stored at 4° C. was about 1%. The fractional survival of cells incubated with histone H1 stored at 37° C. was about 6%.

E. coli strain AB1157 [9] = assay: Development of bacterial resistance to histone H1; type: cell-based, Escherichia coli; details: FIG. 6
Description: Purified bovine histone H1 is prepared as described herein in Example 1. Cells of E. coli strain AB1157 are incubated in aliquots of Sorensen buffer containing various set concentrations of histone H1. The aliquot having the highest histone H1 concentration in which cells proliferate (as indicated, for example, by turbidity of the buffer) is used to seed cultures having even higher histone H1 concentrations. This process is repeated until cells are isolated which grow at a concentration of histone H1 that is normally toxic to E. coli cells.

[10] = tested on: non-cancerous eukaryotic cells
animal cells = details: on the order of; cited from earlier work
[11] = Incubation time 10 minutes, [Histone H1] 1.9 micromolar
[12] = Incubation time 10 minutes, [Histone H1] 3.8 micromolar
[13] = Incubation time 45 minutes, [Histone H1] 1.9 micromolar
[14] = Incubation time 45 minutes, [Histone H1] 3.8 micromolar

## heparin
E. coli strain AB1157 [1]
  heparin concentration at which histone H1 exhibited essentially no antibiotic activity: greater than 150 units per milliliter
  lowest heparin concentration that reduced the antibiotic activity of histone H1: 6.2 units per milliliter

## NC[C@H]1O[C@H](O[C@H]2[C@H](O)[C@@H](O[C@H]3O[C@H](CO)[C@@H](O)[C@H](N)[C@H]3O)[C@H](N)C[C@@H]2N)[C@H](O)[C@@H](O)[C@@H]1O [kanamycin, reference compound]
E. coli strain AB1157 [2]; 1.9 micromolar, 37° C., ten minutes, Sorensen buffer
  cytotoxicity: no measurable cytotoxicity

## histone H1
E. coli strain AB1157 [2]
  lowest H1 concentration at which significant cytotoxicity was observed: 0.24 µM
E. coli strain AB1157 [2]; 0 to about 10% (v/v) human AB serum or fetal calf serum
  dependence of antibiotic activity on serum: independent of serum concentrations at concentrations at least as high as 10% (v/v) serum
E. coli strain AB1157 [2]; 1.9 micromolar H1, 37° C.
  incubation time sufficient to achieve maximal cytotoxic effect: less than ten
E. coli strain AB1157 [2]; 1.9 micromolar histone H1, 4° C., 30° C., 37° C.
  temperature dependency of bactericidal effect: significantly greater at 37 °C than at either 4 °C or 30 °C
E. coli strain AB1157 [2]; histone H1 concentration less than 1 micromolar, twenty minutes in Sorensen buffer
  E. coli cells killed: more than 98%
Bacillus cereus; [11]
  Percent Reduction in Colony Formation: 11.8%
Bacillus cereus; [12]
  Percent Reduction in Colony Formation: 50.7%
Bacillus cereus; [13]
  Percent Reduction in Colony Formation: 42.5%
Bacillus cereus; [14]
  Percent Reduction in Colony Formation: 77.4%
Bacillus megaterium; [11]
  Percent Reduction in Colony Formation: 93.3%
Bacillus megaterium; [12]
  Percent Reduction in Colony Formation: 91.2%
Bacillus megaterium; [13]
  Percent Reduction in Colony Formation: 92.9%
Bacillus megaterium; [14]
  Percent Reduction in Colony Formation: 99.3%
Bacillus subtilis
  Percent Reduction in Colony Formation: 97.4%
Enterococcus faecalis; [11]
  Percent Reduction in Colony Formation: 0.0%
Enterococcus faecalis; [12]
  Percent Reduction in Colony Formation: 0.0%
Enterococcus faecalis; [13]
  Percent Reduction in Colony Formation: 0.0%
Enterococcus faecalis; [14]
  Percent Reduction in Colony Formation: 0.0%
[3]; [11]
  Percent Reduction in Colony Formation: 99.6%
[3]; [12]
  Percent Reduction in Colony Formation: 99.9%
[3]; [13]
  Percent Reduction in Colony Formation: 99.7%
[3]; [14]
  Percent Reduction in Colony Formation: 100%
Proteus mirabilis
  Percent Reduction in Colony Formation: 0.0%
Pseudomonas aeruginosa; [11]
  Percent Reduction in Colony Formation: 99.6%
Pseudomonas aeruginosa; [12]
  Percent Reduction in Colony Formation: 100%
Pseudomonas aeruginosa; [13]
  Percent Reduction in Colony Formation: 100%
Pseudomonas aeruginosa; [14]
  Percent Reduction in Colony Formation: 100%
Salmonella enteritidis
  Percent Reduction in Colony Formation: >99%
Serratia marcescens
  Percent Reduction in Colony Formation: 14.0%
Staphylococcus aureus; [11]
  Percent Reduction in Colony Formation: 0.0%
Staphylococcus aureus; [12]
  Percent Reduction in Colony Formation: 0.0%
Staphylococcus aureus; [13]
  Percent Reduction in Colony Formation: 0.0%
Staphylococcus aureus; [14]
  Percent Reduction in Colony Formation: 0.0%
[4]
  killing of penicillin-resistant cells compared with wild type cells: killed penicillin-resistant cells approximately as efficiently as it killed wild type cells
[5]
  survival: less than 3%
E. coli strain AB1157 [6]
  fraction of the cells which exhibited membrane damage: dependent on the concentration of histone H1
E. coli strain AB1157 [7]
  binding to bacteria: binds specifically to bacteria in a non-reversible manner
Bacterial cells; bacterial cells
  toxic concentration: less than 80 micrograms per milliliter
Bacterial cells; relatively low concentrations, as described herein
  concentrations that induce death of bacterial cells: 0.2 to 4 µM
E. coli strain AB1157 [8]; histone H1 stored at 4° C. for twenty hours
  fractional survival of cells: about 1%
E. coli strain AB1157 [8]; histone H1 stored at 37° C. for twenty hours
  fractional survival of cells: about 6%
E. coli strain AB1157 [8]; histone H1 stored at −80° C. for twenty hours
  fractional survival of cells: about 0.1%
E. coli strain AB1157 [8]; stored at −80° C. for more than thirty-six months
  antibiotic activity after storage: not significantly decreased
E. coli strain AB1157 [9]
  development of resistance of E. coli cells to the antibiotic activity: can develop resistance
[10]
  toxic concentration: more than 200 or 250 micrograms per milliliter
Animal cells
  concentrations that may induce death of animal cells: 10 to 100 µM

B1: Trypsin: Protease used to digest histone H1; tested alone as control (protein, UniProt P00760 24-246, looked up)
Serine protease 1: IVGGYTCGANTVPYQVSLNSGYHFCGGSLINSQWVVSAAHCYKSGIQVRLGEDNINVVEGNEQFISASKSIVHPSYNSNTLNNDIMLIKLKSAASLNSRVASISLPTSCASAGTQCLISGWGNTKSSGTSYPDVLKCLKAPILSDSSCKSAYPGQITSNMFCAGYLEGGKDSCQGDSGGPVVCSGKLQGIVSWGSGCAQKNKPGVYTKVCNYVSWIKQTIASN
E. coli strain AB1157 [2]; trypsin alone
  effect on survival of the bacteria: had no effect on the survival of the bacteria
